According to US20060211698A1, “Bicyclic heteroaryl derivatives for treating viruses” (Genelabs, Inc., priority 2005, published 2006):

molecular target: T1, HCV-NS5b (Hepatitis C virus genotype 1b, UniProt Q9WMX2); experiment: HCV-NS5b Enzyme Assay; type: biochemical; settings: 1 μM test compound; incorporation of [3H]-UTP, 37° C., 2 hours
T1 construct: The cloned fragment was missing the C terminus 21 amino acid residues; (His)6 (C); made in house; host or cells: XL-1 cells (E. coli)
Method in brief: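 The NS5B construct lacks its C-terminal 21 residues, carries a C-terminal His6 tag and was expressed in E. coli. [^3H]-UTP incorporation on a biotinylated HCV heteropolymeric template (10 ng/μL) with 10 μM each NTP, pH 7.5, 5 mM MgCl2 and 5% DMSO ran 2 h at 37° C and was read by SPA scintillation. IC50s came from 10-point 2-fold series starting at 50 or 2 μM.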

| SMILES | inhibition at 1 µM [%] |
| --- | --- |
| COc1ccc(-c2ccc3cc(-c4c(C5CCCCC5)c5ccc(C(=O)O)cc5n4CC(=O)N4CCOCC4)ccc3n2)cc1F [Compound 273, 3-Cyclohexyl-2-[2-(3-fluoro-4-methoxy-phenyl)-quinolin-6-yl]-1-(2-morpholin-4-yl-2-oxo-ethyl)-1H-indole-6-carboxylic acid] | 99.4 |
| Cc1nc(C)c(-c2ccc3cc(-c4c(C5CCCCC5)c5ccc(C(=O)O)cc5n4CC(=O)N4CCC(N(C)C)CC4)ccc3n2)s1 [Compound 274, 3-Cyclohexyl-1-[2-(4-dimethylamino-piperidin-1-yl)-2-oxo-ethyl]-2-[2-(2,4-dimethyl-thiazol-5-yl)-quinolin-6-yl]-1H-indole-6-carboxylic acid] | 96 |
| CCN(CC)C1CCN(C(=O)Cn2c(-c3ccc4nc(-c5sc(C)nc5C)ccc4c3)c(C3CCCCC3)c3ccc(C(=O)O)cc32)CC1 [Compound 275, 3-Cyclohexyl-1-[2-(4-diethylamino-piperidin-1-yl)-2-oxo-ethyl]-2-[2-(2,4-dimethyl-thiazol-5-yl)-quinolin-6-yl]-1H-indole-6-carboxylic acid] | 98.9 |
| Cc1nc(C)c(-c2ccc3cc(-c4c(C5CCCCC5)c5ccc(C(=O)O)cc5n4CC(=O)N4CCCC4C)ccc3n2)s1 (centres unmarked) [Compound 277, 3-Cyclohexyl-2-[2-(2,4-dimethyl-thiazol-5-yl)-quinolin-6-yl]-1-[2-(2-methyl-pyrrolidin-1-yl)-2-oxo-ethyl]-1H-indole-6-carboxylic acid] | 96.3 |
| Cc1nc(C)c(-c2ccc3cc(-c4c(C5CCCCC5)c5ccc(C(=O)O)cc5n4CC(=O)N4CCC(N5CCOCC5)CC4)ccc3n2)s1 [Compound 278, 3-Cyclohexyl-2-[2-(2,4-dimethyl-thiazol-5-yl)-quinolin-6-yl]-1-[2-(4-morpholin-4-yl-piperidin-1-yl)-2-oxo-ethyl]-1H-indole-6-carboxylic acid] | 91.8 |
| Cc1sc(-c2ccc3cc(-c4c(C5CCCCC5)c5ccc(C(=O)O)cc5n4CC(=O)N4CCOCC4)ccc3n2)c(C)[n+]1[O-] [Compound 281, 3-Cyclohexyl-2-[2-(2,4-dimethyl-3-oxy-thiazol-5-yl)-quinolin-6-yl]-1-(2-morpholin-4-yl-2-oxo-ethyl)-1H-indole-6-carboxylic acid] | 77.6 |
| Cc1nc(C)c(-c2ccc3cc(-c4c(C5CCCCC5)c5ccc(C(=O)O)cc5n4Cc4ccccc4)ccc3n2)s1 [Compound 287, 1-Benzyl-3-cyclohexyl-2-[2-(2,4-dimethyl-thiazol-5-yl)-quinolin-6-yl]-1H-indole-6-carboxylic acid] | 95.2 |
| Cc1cc(Cn2c(-c3ccc4nc(-c5sc(C)nc5C)ccc4c3)c(C3CCCCC3)c3ccc(C(=O)O)cc32)no1 [Compound 291, 3-Cyclohexyl-2-[2-(2,4-dimethyl-thiazol-5-yl)-quinolin-6-yl]-1-(5-methyl-isoxazol-3-ylmethyl)-1H-indole-6-carboxylic acid] | 96.4 |
| Cc1nc(C)c(-c2ccc3cc(-c4c(C5CCCCC5)c5ccc(C(=O)O)cc5n4Cc4ccc(C(=O)O)cc4)ccc3n2)s1 [Compound 292, 1-(4-Carboxy-benzyl)-3-cyclohexyl-2-[2-(2,4-dimethyl-thiazol-5-yl)-quinolin-6-yl]-1H-indole-6-carboxylic acid] | 98.7 |
| COc1cccc(Cn2c(-c3ccc4nc(-c5sc(C)nc5C)ccc4c3)c(C3CCCCC3)c3ccc(C(=O)O)cc32)c1 [Compound 293, 3-Cyclohexyl-2-[2-(2,4-dimethyl-thiazol-5-yl)-quinolin-6-yl]-1-(3-methoxy-benzyl)-1H-indole-6-carboxylic acid] | 69.2 |
| O=C(O)c1ccc2c(C3CCCCC3)c(-c3ccc(-c4ccc5cc(Br)ccc5n4)cc3)n(CC(=O)N3CCOCC3)c2c1 [Compound 298, 2-[4-(6-Bromo-quinolin-2-yl)-phenyl]-3-cyclohexyl-1-(2-morpholin-4-yl-2-oxo-ethyl)-1H-indole-6-carboxylic acid] | 101 |
| COc1ccc(-c2ccc(-c3c(C4CCCCC4)c4ccc(C(=O)O)cc4n3CC(=O)N3CCOCC3)cc2)cc1 [Compound 301, 3-Cyclohexyl-2-(4′-methoxy-biphenyl-4-yl)-1-(2-morpholin-4-yl-2-oxo-ethyl)-1H-indole-6-carboxylic acid] | 97 |
| O=C(O)c1ccc2c(C3CCCCC3)c(-c3ccc(-c4ccccc4F)cc3)n(CC(=O)N3CCOCC3)c2c1 [Compound 302, 3-Cyclohexyl-2-(2′-fluoro-biphenyl-4-yl)-1-(2-morpholin-4-yl-2-oxo-ethyl)-1H-indole-6-carboxylic acid] | 99.3 |
| O=C(O)c1ccc2c(C3CCCCC3)c(-c3ccc(-c4cccnc4F)cc3)n(CC(=O)N3CCOCC3)c2c1 [Compound 303, 3-Cyclohexyl-2-[4-(2-fluoro-pyridin-3-yl)-phenyl]-1-(2-morpholin-4-yl-2-oxo-ethyl)-1H-indole-6-carboxylic acid] | 98 |
| COc1ncccc1-c1ccc(-c2c(C3CCCCC3)c3ccc(C(=O)O)cc3n2CC(=O)N2CCOCC2)cc1 [Compound 304, 3-Cyclohexyl-2-[4-(2-methoxy-pyridin-3-yl)-phenyl]-1-(2-morpholin-4-yl-2-oxo-ethyl)-1H-indole-6-carboxylic acid] | 98.5 |
| N#Cc1cccc(-c2ccc(-c3c(C4CCCCC4)c4ccc(C(=O)O)cc4n3CC(=O)N3CCOCC3)cc2)c1 [Compound 306, 2-(3′-Cyano-biphenyl-4-yl)-3-cyclohexyl-1-(2-morpholin-4-yl-2-oxo-ethyl)-1H-indole-6-carboxylic acid] | 97.8 |
| N#Cc1ccc(-c2ccc(-c3c(C4CCCCC4)c4ccc(C(=O)O)cc4n3CC(=O)N3CCOCC3)cc2)cc1 [Compound 307, 2-(4′-Cyano-biphenyl-4-yl)-3-cyclohexyl-1-(2-morpholin-4-yl-2-oxo-ethyl)-1H-indole-6-carboxylic acid] | 97.4 |
| COc1ccncc1-c1ccc(-c2c(C3CCCCC3)c3ccc(C(=O)O)cc3n2CC(=O)O)cc1 [Compound 308, 1-Carboxymethyl-3-cyclohexyl-2-[4-(4-methoxy-pyridin-3-yl)-phenyl]-1H-indole-6-carboxylic acid] | 97.5 |
| COc1cccc(-c2ccc(-c3c(C4CCCCC4)c4ccc(C(=O)O)cc4n3CC(=O)N3CCOCC3)cc2)c1 [Compound 309, 3-Cyclohexyl-2-(3′-methoxy-biphenyl-4-yl)-1-(2-morpholin-4-yl-2-oxo-ethyl)-1H-indole-6-carboxylic acid] | 98.8 |
| O=C(O)c1ccc2c(C3CCCCC3)c(-c3ccc(-c4cccc([N+](=O)[O-])c4)cc3)n(CC(=O)N3CCOCC3)c2c1 [Compound 310, 3-Cyclohexyl-2-(3′-nitro-biphenyl-4-yl)-1-(2-morpholin-4-yl-2-oxo-ethyl)-1H-indole-6-carboxylic acid] | 99.6 |

The next lines start with the values.

| inhibition at 1 µM [%] | SMILES |
| --- | --- |
| 97.6 | O=C(O)c1ccc2c(C3CCCCC3)c(-c3ccc4nc(-c5ccccc5Cl)ccc4c3)n(CC(=O)N3CCOCC3)c2c1 [Compound 276, 2-[2-(2-Chloro-phenyl)-quinolin-6-yl]-3-cyclohexyl-1-(2-morpholin-4-yl-2-oxo-ethyl)-1H-indole-6-carboxylic acid] |
| 100 | Cc1nc(C)c(-c2ccc3cc(-c4c(C5CCCCC5)c5ccc(C(=O)O)cc5n4CC(=O)N4C(C)COCC4C)ccc3n2)s1 (centres unmarked) [Compound 279, 3-Cyclohexyl-1-[2-(3,5-dimethyl-morpholin-4-yl)-2-oxo-ethyl]-2-[2-(2,4-dimethyl-thiazol-5-yl)-quinolin-6-yl]-1H-indole-6-carboxylic acid] |
| 97.7 | Cc1nc(C)c(-c2ccc3cc(-c4c(C5CCCCC5)c5ccc(C(=O)O)cc5n4CC(=O)N4CCC(C)CC4)ccc3n2)s1 [Compound 280, 3-Cyclohexyl-2-[2-(2,4-dimethyl-thiazol-5-yl)-quinolin-6-yl]-1-[2-(4-methyl-piperidin-1-yl)-2-oxo-ethyl]-1H-indole-6-carboxylic acid] |
| 87.8 | Cc1nc(C)c(-c2ccc3cc(-c4c(C5CCCCC5)c5ccc(C(=O)O)cc5n4CC(=O)N4CCOCC4)cc(Br)c3n2)s1 [Compound 282, 2-[8-Bromo-2-(2,4-dimethyl-thiazol-5-yl)-quinolin-6-yl]-3-cyclohexyl-1-(2-morpholin-4-yl-2-oxo-ethyl)-1H-indole-6-carboxylic acid] |
| 85.7 | Cc1nc(C)c(-c2ccc3cc(-c4c(C5CCCCC5)c5ccc(C(=O)O)cc5n4CCCN(C)C)ccc3n2)s1 [Compound 286, 3-Cyclohexyl-1-(3-dimethylamino-propyl)-2-[2-(2,4-dimethyl-thiazol-5-yl)-quinolin-6-yl]-1H-indole-6-carboxylic acid] |
| 95.7 | Cc1nc(C)c(-c2ccc3cc(-c4c(C5CCCCC5)c5ccc(C(=O)O)cc5n4Cc4ccncc4)ccc3n2)s1 [Compound 289, 3-Cyclohexyl-2-[2-(2,4-dimethyl-thiazol-5-yl)-quinolin-6-yl]-1-pyridin-4-ylmethyl-1H-indole-6-carboxylic acid] |
| 79.1 | Cc1nc(C)c(-c2ccc3cc(-c4c(C5CCCCC5)c5ccc(C(=O)O)cc5n4CCN4CCOCC4)ccc3n2)s1 [Compound 290, 3-Cyclohexyl-2-[2-(2,4-dimethyl-thiazol-5-yl)-quinolin-6-yl]-1-(2-morpholin-4-yl-ethyl)-1H-indole-6-carboxylic acid] |
| 94.9 | CN(C)c1ccc(-c2ccc(-c3c(C4CCCCC4)c4ccc(C(=O)O)cc4n3CC(=O)N3CCOCC3)cc2)cc1 [Compound 299, 3-Cyclohexyl-2-(4′-dimethylamino-biphenyl-4-yl)-1-(2-morpholin-4-yl-2-oxo-ethyl)-1H-indole-6-carboxylic acid] |
| 98.2 | Cc1ccc(-c2ccc(-c3c(C4CCCCC4)c4ccc(C(=O)O)cc4n3CC(=O)N3CCOCC3)cc2)cc1 [Compound 300, 3-Cyclohexyl-2-(4′-methyl-biphenyl-4-yl)-1-(2-morpholin-4-yl-2-oxo-ethyl)-1H-indole-6-carboxylic acid] |
